According to ChEMBL document CHEMBL1133261, “Synthesis and biological evaluation of 1,3,4-triaryl-3-pyrrolin-2-ones, a new class of selective cyclooxygenase-2 inhibitors” (Bioorg Med Chem Lett, 2000):

Each compound was assayed against Prostaglandin G/H synthase 1 (Homo sapiens, UniProt P23219) (assay: Biochemical index for Prostaglandin G/H synthase 1 measured as, thromboxane 2 (TXB2) levels following blood coagulation).
Format: tissue-based

Chain of Prostaglandin G/H synthase 1 (P23219 whole entry): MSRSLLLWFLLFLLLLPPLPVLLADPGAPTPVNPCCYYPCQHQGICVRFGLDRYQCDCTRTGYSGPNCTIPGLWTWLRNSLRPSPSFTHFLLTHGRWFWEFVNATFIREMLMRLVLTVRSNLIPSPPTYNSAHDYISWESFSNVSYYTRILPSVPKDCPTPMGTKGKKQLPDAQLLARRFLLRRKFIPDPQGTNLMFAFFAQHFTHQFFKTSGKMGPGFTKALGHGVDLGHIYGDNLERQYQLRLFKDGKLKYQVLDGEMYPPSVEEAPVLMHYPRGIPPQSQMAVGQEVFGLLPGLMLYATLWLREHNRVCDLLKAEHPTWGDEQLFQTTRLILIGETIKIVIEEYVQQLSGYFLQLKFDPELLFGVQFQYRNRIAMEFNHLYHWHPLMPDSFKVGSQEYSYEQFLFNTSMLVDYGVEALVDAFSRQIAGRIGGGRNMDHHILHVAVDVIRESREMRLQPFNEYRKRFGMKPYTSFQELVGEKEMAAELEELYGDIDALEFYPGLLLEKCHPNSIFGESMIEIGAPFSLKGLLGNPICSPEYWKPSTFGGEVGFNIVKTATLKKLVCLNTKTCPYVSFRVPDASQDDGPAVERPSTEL

Row | SMILES | IC50
1 | CS(=O)(=O)c1ccc(C2=C(c3ccccc3)C(=O)N(c3ccccc3F)C2)cc1 | 10.8 µM
2 | COc1ccccc1N1CC(c2ccc(S(C)(=O)=O)cc2)=C(c2ccc(F)cc2)C1=O | 4 µM
3 | CS(=O)(=O)c1ccc(C2=C(c3ccc(F)cc3)C(=O)N(c3ccccc3F)C2)cc1 | 2.5 µM
4 | COc1ccc(C2=C(c3ccc(S(C)(=O)=O)cc3)CN(c3ccc(F)cc3)C2=O)cc1 | 2.5 µM
5 | COc1ccc(C2=C(c3ccc(S(C)(=O)=O)cc3)CN(c3ccccc3Cl)C2=O)cc1 | 2.3 µM
6 | CS(=O)(=O)c1ccc(C2=C(c3ccc(F)cc3)C(=O)N(c3ccccc3)C2)cc1 | 2.7 µM
7 | CS(=O)(=O)c1ccc(C2=C(c3ccc(F)c(F)c3)C(=O)N(c3ccccc3)C2)cc1 | 8.2 µM
8 | Cc1ccc(N2CC(c3ccc(S(C)(=O)=O)cc3)=C(c3ccc(F)cc3)C2=O)cc1 | 3.7 µM
9 | COc1ccc(N2CC(c3ccc(S(C)(=O)=O)cc3)=C(c3ccc(F)cc3)C2=O)cc1 | 5.28 µM
10 | Cc1ccc(N2CC(c3ccc(S(C)(=O)=O)cc3)=C(c3ccccc3)C2=O)cc1 | 6.9 µM
11 | COc1ccc(C2=C(c3ccc(S(C)(=O)=O)cc3)CN(c3ccccc3)C2=O)cc1 | 2.68 µM
12 | CS(=O)(=O)c1ccc(C2=C(c3ccccc3)C(=O)N(c3cccc(Cl)c3)C2)cc1 | 9.8 µM
13 | COc1ccc(C2=C(c3ccc(S(C)(=O)=O)cc3)CN(c3cccc(F)c3)C2=O)cc1 | 2.5 µM
14 | CS(=O)(=O)c1ccc(C2=C(c3ccc(F)cc3)C(=O)N(c3ccc(C(F)(F)F)cc3)C2)cc1 | 7.2 µM
15 | CS(=O)(=O)c1ccc(C2=C(c3ccccc3)C(=O)N(c3ccccc3)C2)cc1 | 2.4 µM
16 | CS(=O)(=O)c1ccc(C2=C(c3ccccc3)C(=O)N(c3ccc(F)cc3)C2)cc1 | 5.86 µM
17 | CS(=O)(=O)c1ccc(C2=C(c3ccccc3)C(=O)N(c3ccc(C(F)(F)F)cc3)C2)cc1 | 5.1 µM
